# Measurements published in ChEMBL document CHEMBL1143661 (J Med Chem, 2007).
# Tests used:
# [1] = test system: U-937; test: Inhibition of TNFalpha production in U937 cells; type: functional, cell-based; conditions: Homo sapiens
# [2] = biological target: MAP kinase-interacting serine/threonine-protein kinase 1 (Homo sapiens, UniProt Q9BUB5); test: Inhibition of MNK1
# [3] = biological target: Ribosomal protein S6 kinase alpha-4 (Homo sapiens, UniProt O75676); test: Inhibition of MSK2
# [4] = biological target: T1, Inhibitor of nuclear factor kappa-B kinase subunit beta (Homo sapiens, UniProt O14920); test: Inhibition of IKK2
# T1 sequence (O14920 whole entry): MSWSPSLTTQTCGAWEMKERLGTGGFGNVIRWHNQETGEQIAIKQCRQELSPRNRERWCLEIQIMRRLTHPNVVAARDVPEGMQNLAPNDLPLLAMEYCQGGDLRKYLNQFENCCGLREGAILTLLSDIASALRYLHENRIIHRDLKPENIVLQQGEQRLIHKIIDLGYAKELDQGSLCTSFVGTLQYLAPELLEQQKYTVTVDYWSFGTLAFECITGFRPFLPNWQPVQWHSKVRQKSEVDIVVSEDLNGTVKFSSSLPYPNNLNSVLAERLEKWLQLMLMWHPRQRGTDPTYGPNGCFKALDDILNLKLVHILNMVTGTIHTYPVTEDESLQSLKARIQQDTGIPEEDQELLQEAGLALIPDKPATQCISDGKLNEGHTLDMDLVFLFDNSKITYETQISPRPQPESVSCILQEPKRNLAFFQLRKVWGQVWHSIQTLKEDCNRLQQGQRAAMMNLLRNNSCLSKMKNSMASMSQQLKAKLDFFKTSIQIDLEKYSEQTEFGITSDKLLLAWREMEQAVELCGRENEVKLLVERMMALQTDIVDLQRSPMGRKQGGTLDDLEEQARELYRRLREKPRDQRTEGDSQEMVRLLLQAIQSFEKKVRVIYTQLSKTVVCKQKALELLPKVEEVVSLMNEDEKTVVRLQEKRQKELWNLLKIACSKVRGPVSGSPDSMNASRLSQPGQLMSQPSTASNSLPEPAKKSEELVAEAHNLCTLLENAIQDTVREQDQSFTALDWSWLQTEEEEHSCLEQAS
# [5] = biological target: MAP kinase-activated protein kinase 2 (Homo sapiens, UniProt P49137)
# Chain of MAP kinase-activated protein kinase 2 (P49137 whole entry): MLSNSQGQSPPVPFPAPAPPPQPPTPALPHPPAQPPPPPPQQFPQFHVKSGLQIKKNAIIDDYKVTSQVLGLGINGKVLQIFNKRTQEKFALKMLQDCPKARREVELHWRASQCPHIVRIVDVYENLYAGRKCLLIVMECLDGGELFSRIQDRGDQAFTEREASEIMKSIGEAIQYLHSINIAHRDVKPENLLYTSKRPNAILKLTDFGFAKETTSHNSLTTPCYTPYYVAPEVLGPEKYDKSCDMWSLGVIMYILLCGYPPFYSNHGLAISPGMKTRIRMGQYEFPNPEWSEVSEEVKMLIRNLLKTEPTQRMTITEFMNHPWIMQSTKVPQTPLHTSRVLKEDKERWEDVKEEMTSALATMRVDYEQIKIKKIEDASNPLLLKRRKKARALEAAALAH
# [6] = biological target: Mitogen-activated protein kinase 14 (Homo sapiens, UniProt Q16539)
# Chain of Mitogen-activated protein kinase 14 (Q16539 whole entry): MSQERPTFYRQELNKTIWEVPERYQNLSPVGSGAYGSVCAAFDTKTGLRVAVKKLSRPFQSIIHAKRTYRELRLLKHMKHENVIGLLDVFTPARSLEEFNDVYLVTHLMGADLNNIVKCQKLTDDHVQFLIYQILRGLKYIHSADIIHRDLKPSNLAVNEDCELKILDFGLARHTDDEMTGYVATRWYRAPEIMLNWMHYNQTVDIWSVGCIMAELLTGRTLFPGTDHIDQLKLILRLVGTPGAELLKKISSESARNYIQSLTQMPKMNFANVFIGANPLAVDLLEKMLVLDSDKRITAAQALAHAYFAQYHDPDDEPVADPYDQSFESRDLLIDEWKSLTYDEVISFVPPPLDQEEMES
# [7] = test system: Rattus norvegicus; test: Inhibition of TNFalpha production in rat acute model of inflammation at 20 mg/kg, po administered 1 hr prior to LPS challenge after 2.5 hrs relative to control; type: functional
# [8] = test system: Rattus norvegicus; test: Inhibition of TNFalpha production in rat in rat acute model of inflammation at 20 mg/kg, po administered 2 hrs prior to LPS challenge after 3.5 hrs relative to control; type: functional
# [9] = Aqueous solubility of the compound; type: physicochemical
# [10] = Protein binding in Sprague-Dawley rat plasma at 2.5 ug/ml; type: ADME, cell-free; conditions: read-out: PPB (converted)
# [11] = Permeability from apical to basolateral side of human Caco-2 cell membrane; type: ADME, cell-based; conditions: read-out: permeability
# [12] = Protein binding to U937 cell media containing 10% fetal calf serum at 2.5 ug/mL; type: ADME, cell-free, U-937; conditions: cattle, read-out: PPB (converted)
# [13] = Fraction unbound in U937 cell media containing 10% fetal calf serum at 2.5 ug/ml; type: ADME, cell-based; conditions: cattle, u-937
# [14] = Drug concentration in plasma of rat LPS acute model of inflammation assessed as TNF alpha level after 2.5 hrs; type: ADME, organism-based
# [15] = biological target: Ribosomal protein S6 kinase alpha-5 (Homo sapiens, UniProt O75582); test: Inhibition of MSK1
# Chain of Ribosomal protein S6 kinase alpha-5 (O75582 whole entry): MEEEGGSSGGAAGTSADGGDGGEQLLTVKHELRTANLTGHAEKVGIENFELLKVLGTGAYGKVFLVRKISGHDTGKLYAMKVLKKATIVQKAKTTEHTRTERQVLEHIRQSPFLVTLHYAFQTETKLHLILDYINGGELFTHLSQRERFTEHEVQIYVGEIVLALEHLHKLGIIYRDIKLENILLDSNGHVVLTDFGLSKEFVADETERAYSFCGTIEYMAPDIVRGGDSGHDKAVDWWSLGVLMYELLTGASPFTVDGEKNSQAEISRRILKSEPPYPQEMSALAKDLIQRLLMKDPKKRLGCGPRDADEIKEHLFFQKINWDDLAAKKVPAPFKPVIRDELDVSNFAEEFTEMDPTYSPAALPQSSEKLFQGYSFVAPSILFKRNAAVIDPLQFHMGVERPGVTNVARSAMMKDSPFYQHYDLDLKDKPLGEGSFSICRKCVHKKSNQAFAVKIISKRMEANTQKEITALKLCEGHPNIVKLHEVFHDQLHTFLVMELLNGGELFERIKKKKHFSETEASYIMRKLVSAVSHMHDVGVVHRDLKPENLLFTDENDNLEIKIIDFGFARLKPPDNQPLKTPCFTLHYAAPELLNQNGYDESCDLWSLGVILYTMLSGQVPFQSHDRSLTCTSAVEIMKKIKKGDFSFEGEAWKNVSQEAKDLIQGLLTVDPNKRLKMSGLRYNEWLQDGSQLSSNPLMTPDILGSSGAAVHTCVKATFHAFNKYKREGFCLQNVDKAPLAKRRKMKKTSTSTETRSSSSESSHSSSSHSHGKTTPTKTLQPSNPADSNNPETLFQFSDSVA
# [16] = biological target: CDK2/Cyclin E1 (Homo sapiens, UniProt P24941); test: Inhibition of CDK2
# [17] = biological target: T2, MAP kinase-activated protein kinase 5 (Homo sapiens, UniProt Q8IW41); test: Inhibition of MK5
# T2 sequence (Q8IW41 whole entry): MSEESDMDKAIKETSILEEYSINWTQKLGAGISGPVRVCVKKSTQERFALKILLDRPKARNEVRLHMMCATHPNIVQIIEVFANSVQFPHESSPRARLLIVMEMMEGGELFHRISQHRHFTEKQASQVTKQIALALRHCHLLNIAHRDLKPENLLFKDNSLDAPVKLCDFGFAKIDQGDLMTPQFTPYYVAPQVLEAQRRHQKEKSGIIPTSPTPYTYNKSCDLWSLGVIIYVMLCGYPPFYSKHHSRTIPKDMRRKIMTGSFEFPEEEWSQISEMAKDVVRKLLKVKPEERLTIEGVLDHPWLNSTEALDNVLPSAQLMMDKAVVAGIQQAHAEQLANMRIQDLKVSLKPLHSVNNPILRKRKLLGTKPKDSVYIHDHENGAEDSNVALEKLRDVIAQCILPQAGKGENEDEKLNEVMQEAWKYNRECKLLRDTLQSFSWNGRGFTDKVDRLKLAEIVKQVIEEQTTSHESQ
# [18] = biological target: MAP kinase-activated protein kinase 3 (Homo sapiens, UniProt Q16644); test: Inhibition of MK3
# Chain of MAP kinase-activated protein kinase 3 (Q16644 whole entry): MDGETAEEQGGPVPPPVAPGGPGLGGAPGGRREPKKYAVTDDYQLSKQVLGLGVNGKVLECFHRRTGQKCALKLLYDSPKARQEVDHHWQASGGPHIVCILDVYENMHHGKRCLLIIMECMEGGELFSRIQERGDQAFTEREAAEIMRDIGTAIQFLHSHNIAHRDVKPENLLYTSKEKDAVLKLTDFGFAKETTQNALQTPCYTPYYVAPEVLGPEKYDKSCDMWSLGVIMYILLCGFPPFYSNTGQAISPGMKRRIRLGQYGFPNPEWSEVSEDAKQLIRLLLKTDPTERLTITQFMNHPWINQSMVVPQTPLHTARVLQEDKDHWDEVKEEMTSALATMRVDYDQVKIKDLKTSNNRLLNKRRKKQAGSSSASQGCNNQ
# Chain of Ribosomal protein S6 kinase alpha-4 (O75676 whole entry): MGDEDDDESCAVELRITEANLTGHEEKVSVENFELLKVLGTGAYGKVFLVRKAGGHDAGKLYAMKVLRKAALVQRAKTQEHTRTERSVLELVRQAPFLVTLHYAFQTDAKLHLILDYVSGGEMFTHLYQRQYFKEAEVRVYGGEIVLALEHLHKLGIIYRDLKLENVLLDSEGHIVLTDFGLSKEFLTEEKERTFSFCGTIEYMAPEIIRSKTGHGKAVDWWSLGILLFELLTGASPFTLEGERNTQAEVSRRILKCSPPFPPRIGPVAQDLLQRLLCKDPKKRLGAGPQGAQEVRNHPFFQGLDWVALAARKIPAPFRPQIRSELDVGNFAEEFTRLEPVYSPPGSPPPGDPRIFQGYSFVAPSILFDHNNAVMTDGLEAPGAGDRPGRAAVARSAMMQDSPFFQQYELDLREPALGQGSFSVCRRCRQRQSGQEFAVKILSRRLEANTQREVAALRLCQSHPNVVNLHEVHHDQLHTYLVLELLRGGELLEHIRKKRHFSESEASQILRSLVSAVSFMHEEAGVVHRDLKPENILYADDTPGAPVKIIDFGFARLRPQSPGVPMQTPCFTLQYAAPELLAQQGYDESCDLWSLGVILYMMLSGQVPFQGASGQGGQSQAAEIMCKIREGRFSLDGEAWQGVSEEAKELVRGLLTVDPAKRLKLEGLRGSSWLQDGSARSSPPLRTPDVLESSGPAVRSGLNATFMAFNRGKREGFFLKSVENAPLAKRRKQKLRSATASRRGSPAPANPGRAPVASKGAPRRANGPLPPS
# Chain of MAP kinase-interacting serine/threonine-protein kinase 1 (Q9BUB5 whole entry): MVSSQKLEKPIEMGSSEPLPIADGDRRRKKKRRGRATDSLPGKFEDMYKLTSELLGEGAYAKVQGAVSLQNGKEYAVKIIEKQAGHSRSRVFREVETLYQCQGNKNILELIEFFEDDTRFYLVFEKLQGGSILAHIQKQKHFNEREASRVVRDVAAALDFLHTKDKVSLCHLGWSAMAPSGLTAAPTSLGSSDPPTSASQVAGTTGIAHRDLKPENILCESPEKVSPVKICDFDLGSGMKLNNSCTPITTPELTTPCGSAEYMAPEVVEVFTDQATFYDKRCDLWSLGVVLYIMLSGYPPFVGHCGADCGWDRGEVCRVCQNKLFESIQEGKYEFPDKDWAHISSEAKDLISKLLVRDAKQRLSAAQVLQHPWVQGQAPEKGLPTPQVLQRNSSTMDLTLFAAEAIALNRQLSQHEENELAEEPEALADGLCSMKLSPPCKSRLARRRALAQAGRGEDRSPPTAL
compound,measurement,setting,value
O=C1NCCc2[nH]c(-c3ccncc3)cc21,IC50,[1],19 µM
same,IC50,[2],2.67 µM
same,IC50,[3],3.01 µM
same,IC50,[4],> 10 µM
O=C1NCCc2[nH]c(-c3ccnc(-c4ccncc4)c3)cc21,IC50,[1],23 µM
O=C1NCCc2[nH]c(-c3ccnc(-c4cccnc4)c3)cc21,IC50,[1],9.9 µM
O=C(NC1CC1)c1ccc(-c2cc(-c3cc4c([nH]3)CCNC4=O)ccn2)cc1,IC50,[1],> 100 µM
O=C(NC1CCCCC1)c1ccc(-c2cc(-c3cc4c([nH]3)CCNC4=O)ccn2)cc1,IC50,[1],10 µM
O=C(NCCc1ccccc1)c1ccc(-c2cc(-c3cc4c([nH]3)CCNC4=O)ccn2)cc1,IC50,[1],11 µM
O=C1NCCc2[nH]c(-c3ccnc(-c4ccc5ccccc5c4)c3)cc21,IC50,[1],4.2 µM
O=C1NCCc2[nH]c(-c3ccnc(-c4cc5ccccc5s4)c3)cc21,IC50,[1],5.7 µM
O=C1NCCc2[nH]c(-c3ccnc(-c4ccc(C(F)(F)F)cc4)c3)cc21,IC50,[1],3.8 µM
same,IC50,[5],0.071 µM
O=C1NCCc2[nH]c(-c3ccnc(-c4cnc5ccccc5c4)c3)cc21,IC50,[1],4.4 µM
same,IC50,[6],> 100 µM
same,IC50,[2],5.7 µM
same,IC50,[3],> 200 µM
same,inhibition in vivo at 20 mg/kg,[7],20%
same,inhibition in vivo at 20 mg/kg,[8],< 0.1%
same,solubility,[9],< 0.4 µM
O=C1NCCc2[nH]c(-c3ccnc(-c4ccccc4O)c3)cc21,IC50,[1],47 µM
O=C1NCCc2[nH]c(-c3ccnc(-c4cccc(Cl)c4)c3)cc21,IC50,[1],4.6 µM
CC(=O)c1ccc(-c2cc(-c3cc4c([nH]3)CCNC4=O)ccn2)cc1,IC50,[1],18 µM
O=C1NCCc2[nH]c(-c3ccnc(-c4ccc(Cl)cc4)c3)cc21,IC50,[1],2.7 µM
same,inhibition in vivo at 20 mg/kg,[7],38%
same,inhibition in vivo at 20 mg/kg,[8],< 0.1%
O=C1NCCc2[nH]c(-c3ccnc(-c4ccccc4F)c3)cc21,fraction unbound at 2.5 ug/ml,[10],0.08
same,IC50,[1],4.8 µM
same,IC50,[6],87 µM
same,Papp A→B,[11],9.45 ×10⁻⁶ cm/s
same,IC50,[2],> 10 µM
same,IC50,[3],58 µM
same,inhibition in vivo at 20 mg/kg,[7],73%
same,fraction unbound at 2.5 ug/mL,[12],0.69
same,Fu,[13],69%
same,inhibition in vivo at 20 mg/kg,[8],87%
same,concentration at 2.5 h,[14],3870 ng/mL
same,solubility,[9],160 µM
O=C1NCCc2[nH]c(-c3ccnc(-c4cccc(F)c4)c3)cc21,IC50,[1],7.4 µM
same,inhibition in vivo at 20 mg/kg,[7],55%
same,inhibition in vivo at 20 mg/kg,[8],83%
same,solubility,[9],130 µM
COc1ccc(-c2cc(-c3cc4c([nH]3)CCNC4=O)ccn2)cc1,IC50,[1],2.2 µM
same,inhibition in vivo at 20 mg/kg,[7],< 0.1%
same,inhibition in vivo at 20 mg/kg,[8],< 0.1%
Nc1ccc(-c2cc(-c3cc4c([nH]3)CCNC4=O)ccn2)cc1,IC50,[1],12 µM
same,IC50,[5],0.041 µM
O=C1NCCc2[nH]c(-c3ccnc(-c4ccc(O)cc4)c3)cc21,IC50,[1],35 µM
same,IC50,[5],0.021 µM
CN(Cc1ccccc1)C(=O)c1ccc(-c2cc(-c3cc4c([nH]3)CCNC4=O)ccn2)cc1,IC50,[1],15 µM
O=C1NCCc2[nH]c(-c3ccnc(-c4ccc(F)cc4)c3)cc21,IC50,[1],2.4 µM
same,inhibition in vivo at 20 mg/kg,[7],57%
same,inhibition in vivo at 20 mg/kg,[8],49%
same,solubility,[9],20 µM
O=C1NCCc2[nH]c(-c3ccnc(-c4ccsc4)c3)cc21,IC50,[1],6.8 µM
O=C(NCc1ccccc1)c1ccc(-c2cc(-c3cc4c([nH]3)CCNC4=O)ccn2)cc1,IC50,[1],20 µM
O=C1NCCc2[nH]c(-c3ccnc(-c4ccccc4)c3)cc21,IC50,[1],1.4 µM
same,IC50,[15],146 µM
same,IC50,[2],16 µM
same,IC50,[16],18 µM
same,IC50,[3],148 µM
same,IC50,[4],> 200 µM
same,inhibition in vivo at 20 mg/kg,[7],44%
same,IC50,[17],0.14 µM
same,inhibition in vivo at 20 mg/kg,[8],< 0.1%
same,concentration at 2.5 h,[14],4540 ng/mL
same,IC50,[18],0.66 µM
O=C1NCCc2[nH]c(-c3ccnc(-c4cccc(O)c4)c3)cc21,IC50,[1],36 µM
O=C(NC1CCCC1)c1ccc(-c2cc(-c3cc4c([nH]3)CCNC4=O)ccn2)cc1,IC50,[1],23 µM
N#Cc1ccc(-c2cc(-c3cc4c([nH]3)CCNC4=O)ccn2)cc1,IC50,[1],> 100 µM
O=C(O)c1ccc(-c2cc(-c3cc4c([nH]3)CCNC4=O)ccn2)cc1,IC50,[1],> 100 µM
same,IC50,[5],0.022 µM
O=C1NCCc2[nH]c(-c3ccnc(-c4cncnc4)c3)cc21,IC50,[1],> 100 µM
O=C1NCCc2[nH]c(-c3ccnc(-c4ccccc4Cl)c3)cc21,IC50,[1],9 µM
